Experimental data published in patent US20170137387A1, “PHARMACOLOGICALLY ACTIVE QUINAZOLINEDIONE DERIVATIVES” (ORION CORPORATION, priority 2014, published 2017).

Experiments:
[1] = molecular target: T1, human GABAB1 and GABAB2 receptor subunits (Homo sapiens, UniProt O75899+Q9UBS5); assay: Agonism and positive allosteric modulator pharmacology in vitro, two-addition FLIPR calcium assay; assay type: cell-based; details: CHO cells co-expressing Galpha16; for IA (GABAB agonism): agonism efficacy at 30 μM / GABA efficacy at 30 μM; for IA (GABAB positive allosteric modulation): positive allosteric modulator efficacy at 10 μM (with EC10.5 GABA) / GABA efficacy at 30 μM
T1 construct: expressed in transfected cells; host or cells: CHO cells
T1 sequence (Q9UBS5 15-961 limits assumed): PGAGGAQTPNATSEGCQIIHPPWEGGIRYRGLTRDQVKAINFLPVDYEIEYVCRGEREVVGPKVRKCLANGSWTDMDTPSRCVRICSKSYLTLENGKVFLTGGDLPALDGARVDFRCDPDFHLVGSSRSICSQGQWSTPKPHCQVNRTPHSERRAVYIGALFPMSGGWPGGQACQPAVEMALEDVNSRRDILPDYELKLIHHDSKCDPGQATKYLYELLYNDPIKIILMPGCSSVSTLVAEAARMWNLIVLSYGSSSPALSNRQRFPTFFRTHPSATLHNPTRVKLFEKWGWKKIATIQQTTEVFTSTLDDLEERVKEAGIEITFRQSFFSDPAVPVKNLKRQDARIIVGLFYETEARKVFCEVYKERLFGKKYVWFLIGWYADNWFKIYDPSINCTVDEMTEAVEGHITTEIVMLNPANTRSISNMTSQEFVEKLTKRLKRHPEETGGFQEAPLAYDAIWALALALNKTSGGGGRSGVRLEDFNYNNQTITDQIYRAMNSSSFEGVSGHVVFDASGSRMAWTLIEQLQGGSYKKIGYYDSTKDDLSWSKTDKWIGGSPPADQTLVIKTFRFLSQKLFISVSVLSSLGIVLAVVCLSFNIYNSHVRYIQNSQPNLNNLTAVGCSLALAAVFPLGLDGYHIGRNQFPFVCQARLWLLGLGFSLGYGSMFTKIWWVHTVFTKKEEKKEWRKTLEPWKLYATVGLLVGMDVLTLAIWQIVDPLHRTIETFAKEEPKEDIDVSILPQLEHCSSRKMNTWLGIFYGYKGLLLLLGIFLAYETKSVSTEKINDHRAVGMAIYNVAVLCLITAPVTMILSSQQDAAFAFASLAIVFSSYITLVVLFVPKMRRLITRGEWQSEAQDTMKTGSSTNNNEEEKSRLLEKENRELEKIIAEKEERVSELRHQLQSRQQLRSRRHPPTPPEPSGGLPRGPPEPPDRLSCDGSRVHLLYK
T1 sequence (O75899 42-941): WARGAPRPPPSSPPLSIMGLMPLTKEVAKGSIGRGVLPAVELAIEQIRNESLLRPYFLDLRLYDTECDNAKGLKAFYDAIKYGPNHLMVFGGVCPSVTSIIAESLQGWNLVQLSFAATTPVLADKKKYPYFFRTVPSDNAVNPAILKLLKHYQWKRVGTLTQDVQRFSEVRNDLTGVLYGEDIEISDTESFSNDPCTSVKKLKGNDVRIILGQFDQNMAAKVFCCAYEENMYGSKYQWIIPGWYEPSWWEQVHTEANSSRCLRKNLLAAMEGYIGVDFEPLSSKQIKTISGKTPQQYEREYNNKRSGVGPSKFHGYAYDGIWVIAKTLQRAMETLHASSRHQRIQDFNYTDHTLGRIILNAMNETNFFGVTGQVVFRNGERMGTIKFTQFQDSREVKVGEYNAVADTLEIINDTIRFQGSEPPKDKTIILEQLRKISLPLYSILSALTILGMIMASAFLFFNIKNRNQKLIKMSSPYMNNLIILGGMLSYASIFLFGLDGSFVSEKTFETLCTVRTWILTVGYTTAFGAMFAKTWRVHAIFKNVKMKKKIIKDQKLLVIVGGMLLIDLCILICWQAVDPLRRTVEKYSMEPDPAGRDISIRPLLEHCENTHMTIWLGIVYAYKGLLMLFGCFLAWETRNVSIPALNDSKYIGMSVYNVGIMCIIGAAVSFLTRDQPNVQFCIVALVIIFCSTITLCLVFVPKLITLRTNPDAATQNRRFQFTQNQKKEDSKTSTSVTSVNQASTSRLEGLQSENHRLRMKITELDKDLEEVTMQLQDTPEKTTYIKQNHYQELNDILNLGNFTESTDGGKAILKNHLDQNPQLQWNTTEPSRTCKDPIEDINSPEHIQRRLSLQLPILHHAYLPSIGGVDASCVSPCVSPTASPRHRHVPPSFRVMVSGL
Experimental: (§1) CHO cells expressing the human GABAB1 and GABAB2 receptor subunits co-expressing promiscuous Galpha16 proteins to force couple the receptor to the intracellular calcium signalling pathway were used to study GABAB pharmacology in vitro. The cells were maintained at 37° C. in a 5% CO2 95% air atmosphere in HAM F-12 medium supplemented with 10% foetal bovine serum and selection antibiotics.
(§2) The day before the experiment the cells were detached and plated into black-walled clear bottom 384-well plates at a cell density of 20 000 cells per well. The growth medium was removed and the cells were incubated with FLIPR Calcium 5 Assay reagent (Molecular Devices, CA, USA) diluted 1:1 in Probenecid-Ringer for 1 h at 37° C. in dark. Probenecid-Ringer buffer consisted of 150 mM NaCl, 3 mM KCl, 1.2 mM MgCl2, 1 mM CaCl2, 5 mM glucose, 20 mM 2-(4-(2-hydroxyethyl)piperazin-1-yl)ethanesulfonic acid (HEPES), and 2.5 mM Probenecid (pH 7.4 adjusted with 1.0 M NaOH and osmolarity adjusted to […]). Compounds were dissolved in Probenecid-Ringer. […] The samples were excited at 470-495 nm and emission was detected at 515-575 nm. All experiments were performed at 37° C.
A two-addition protocol was used to determine agonism and positive allosteric modulator pharmacology in the same assay using a kinetic read out. Agonism pharmacology of compounds was studied in the first addition in the concentration range 0.123-30 μM in quadruplicate at each concentration. In the second addition, a low (EC10.5) concentration of GABA was applied to detect the positive allosteric modulator pharmacology of the compounds to be studied. The EC10.5 concentration was determined from the GABA EC50 value using the formula ECF≈(F/(100-F))^1/H·EC50, wherein F is the fraction of full response and H is Hill slope.
(§3) Baseline fluorescence minimum was subtracted from maximum for the calculation of agonism and positive allosteric modulator pharmacology. Both in the agonism mode and in the allosteric mode, the efficacy was related to the intrinsic activity (IA) of the endogenous agonist GABA at 30 μM (positive allosteric modulator efficacy at 10 μM/GABA efficacy or agonism efficacy at 30 μM/GABA efficacy). To determine potentiation of GABA dose-response, the compounds, at a concentration of 10 μM diluted in Probenecid-Ringer, were added by FLIPR tetra followed by addition of GABA (diluted in water in the concentration range 0.123-10 μM). The EC50 values were determined using a four-parameter logistic fit (model 205 in ActivityBase XE). The EC50 value of GABA was divided with the EC50 value of GABA in the presence of positive allosteric modulator to determine potentiation of GABA dose-response EC50 value.

[2] = molecular target: T1, human GABAB1 and GABAB2 receptor subunits; assay: Potentiation of GABA dose-response, FLIPR calcium assay; assay type: cell-based; details: compound at 10 μM; EC50 of GABA divided by EC50 of GABA in the presence of positive allosteric modulator
Experimental: as §1, §2, §3

Row | IA (GABAB agonism) [1] | IA (GABAB positive allosteric modulation) [1] | Potentiation of GABA (fold) [2] [fold] | Compound
1 | 0.14 | 0.65 | 11 | CC(C)(O)Cn1c(=O)n(Cc2ccc(Cl)c(Cl)c2)c(=O)c2ccc(C(F)(F)F)cc21 [Example 2, 3-(3,4-Dichlorobenzyl)-1-(2-hydroxy-2-methylpropyl)-7-(trifluoromethyl)quinazoline-2,4(1H,3H)-dione]
2 | 0.20 | 0.67 | 25.8 | Cn1c(=O)n(C2CCCc3ccccc32)c(=O)c2ccc(C(F)(F)F)cc21 (stereo not drawn) [Example 12, 1-Methyl-3-(1,2,3,4-tetrahydronaphthalen-1-yl)-7-(trifluoromethyl)quinazoline-2,4(1H,3H)-dione]
3 | 0.06 | 0.43 | 1.6 | Cn1c(=O)n(Cc2ccc(Br)cc2)c(=O)c2ccc(Cl)cc21 [Example 18, 3-(4-Bromobenzyl)-7-chloro-1-methylquinazoline-2,4(1H,3H)-dione]
4 | 0.08 | 0.48 | 1.7 | CC(C)(C)C(=O)Cn1c(=O)n(Cc2ccc(Br)cc2)c(=O)c2ccc(F)cc21 [Example 26, 3-(4-Bromobenzyl)-1-(3,3-dimethyl-2-oxobutyl)-7-fluoroquinazoline-2,4(1H,3H)-dione]
5 | 0.23 | 0.45 | 4.8 | Cn1c(=O)n(Cc2ccc(Br)cc2)c(=O)c2ccc(F)cc21 [Example 33, 3-(4-Bromobenzyl)-7-fluoro-1-methylquinazoline-2,4(1H,3H)-dione]
6 | 0.21 | 0.39 | 1.9 | CC(C(N)=O)n1c(=O)n(Cc2ccc(Br)cc2)c(=O)c2ccc(F)cc21 (stereo not drawn) [Example 37, 2-(3-(4-Bromobenzyl)-7-fluoro-2,4-dioxo-3,4-dihydroquinazolin-1(2H)-yl)propanamide]
7 | 0.13 | 0.21 | 3.5 | CC(C)n1c(=O)n(Cc2ccc(Br)cc2)c(=O)c2ccc(F)cc21 [Example 38, 3-(4-Bromobenzyl)-7-fluoro-1-isopropylquinazoline-2,4(1H,3H)-dione]
8 | 0.30 | 0.85 | 23.1 | CC(C)(O)Cn1c(=O)n(Cc2ccc(Br)cc2)c(=O)c2ccc(F)cc21 [Example 39, 3-(4-Bromobenzyl)-7-fluoro-1-(2-hydroxy-2-methylpropyl)quinazoline-2,4(1H,3H)-dione]
9 | 0.10 | 0.47 | 2.8 | CC(C)(O)Cn1c(=O)n(Cc2ccc(Cl)c(Oc3ccccc3)c2)c(=O)c2ccc(F)cc21 [Example 41, 3-(4-Chloro-3-phenoxybenzyl)-7-fluoro-1-(2-hydroxy-2-methylpropyl)quinazoline-2,4(1H,3H)-dione]
10 | 0.18 | 0.37 | 7.3 | C[C@H](c1ccc(Cl)cc1)n1c(=O)c2ccc(F)cc2n(C)c1=O [Example 42, (R)-3-(1-(4-Chlorophenyl)ethyl)-7-fluoro-1-methylquinazoline-2,4(1H,3H)-dione]
11 | 0.17 | 0.51 | 3.8 | Cn1c(=O)n(C2(c3ccc(Cl)cc3)CC2)c(=O)c2ccc(F)cc21 [Example 43, 3-(1-(4-Chlorophenyl)cyclopropyl)-7-fluoro-1-methylquinazoline-2,4(1H,3H)-dione]
12 | 0.28 | 0.61 | 31 | CC(C)(O)Cn1c(=O)n(Cc2ccc(Br)cc2)c(=O)c2cc(F)c(Cl)cc21 [Example 49, 3-(4-Bromobenzyl)-7-chloro-6-fluoro-1-(2-hydroxy-2-methylpropyl)quinazoline-2,4(1H,3H)-dione]
13 | 0.04 | 0.73 | 22 | CC1(Cn2c(=O)n(Cc3ccc(Br)cc3)c(=O)c3cc(F)c(Cl)cc32)COC1 [Example 50, 3-(4-Bromobenzyl)-7-chloro-6-fluoro-1-((3-methyloxetan-3-yl)methyl)quinazoline-2,4(1H,3H)-dione]
14 | 0.20 | 0.85 | 89 | CC(C)(O)Cn1c(=O)n(Cc2ccc(Br)cc2)c(=O)c2cc(F)c(F)c(F)c21 [Example 60, 3-(4-Bromobenzyl)-6,7,8-trifluoro-1-(2-hydroxy-2-methylpropyl)quinazoline-2,4(1H,3H)-dione]
15 | 0.04 | 0.77 | 12.7 | CC1(C)Cn2c(=O)n(Cc3ccc(Br)cc3)c(=O)c3cc(F)c(F)c(c32)O1 [Example 66, 6-(4-Bromobenzyl)-9,10-difluoro-2,2-dimethyl-2H-[1,4]oxazino[2,3,4-ij]quinazoline-5,7(3H,6H)-dione]
16 | 0.02 | 0.71 | 9.5 | CC1(C)Cn2c(=O)n(Cc3ccc(Cl)cc3)c(=O)c3ccc(Cl)c(c32)O1 [Example 67, 10-Chloro-6-(4-chlorobenzyl)-2,2-dimethyl-2H-[1,4]oxazino[2,3,4-ij]quinazoline-5,7(3H,6H)-dione]
17 | 0.18 | 0.71 | 24.5 | C[C@@H](O)Cn1c(=O)n(Cc2ccc(Cl)cc2)c(=O)c2ccc(Cl)c(F)c21 [Example 82, (R)-7-Chloro-3-(4-chlorobenzyl)-8-fluoro-1-(2-hydroxypropyl)quinazoline-2,4(1H,3H)-dione]
18 | 0.10 | 0.86 | 33.4 | COc1c(F)cc2c(=O)n(Cc3ccc(Br)cc3)c(=O)n3c2c1OC(C)(C)C3 [Example 84, 6-(4-Bromobenzyl)-9-fluoro-10-methoxy-2,2-dimethyl-2H-[1,4]oxazino[2,3,4-ij]quinazoline-5,7(3H,6H)-dione]
19 | 0.11 | 0.44 | 3.3 | CCn1c(=O)n(Cc2ccc(Br)cc2)c(=O)c2ccc(F)cc21 [Example 87, 3-(4-Bromobenzyl)-1-ethyl-7-fluoroquinazoline-2,4(1H,3H)-dione]
20 | 0.09 | 0.51 | 19.8 | C[C@H](c1ccc(Cl)cc1)n1c(=O)c2ccc(Cl)cc2n(CC(C)(C)O)c1=O [Example 117, (R)-7-Chloro-3-(1-(4-chlorophenyl)ethyl)-1-(2-hydroxy-2-methylpropyl)quinazoline-2,4(1H,3H)-dione]
21 | 0.13 | 0.71 | 60.4 | CC(C)(O)Cn1c(=O)n(Cc2ccc(Br)cc2)c(=O)c2ccc(Cl)c(F)c21 [Example 123, 3-(4-Bromobenzyl)-7-chloro-8-fluoro-1-(2-hydroxy-2-methylpropyl)quinazoline-2,4(1H,3H)-dione]
22 | 0.02 | 0.53 | 6.7 | CC1(C)Cn2c(=O)n(Cc3ccc(Br)cc3)c(=O)c3ccc(Cl)c(c32)O1 [Example 127, 6-(4-Bromobenzyl)-10-chloro-2,2-dimethyl-2H-[1,4]oxazino[2,3,4-ij]quinazoline-5,7(3H,6H)-dione]

Row | Compound | IA (GABAB agonism) [1] | IA (GABAB positive allosteric modulation) [1] | Potentiation of GABA (fold) [2] [fold]
23 | Cn1c(=O)n(Cc2ccc([N+](=O)[O-])cc2)c(=O)c2ccc(F)cc21 [Example 40, 7-Fluoro-1-methyl-3-(4-nitrobenzyl)quinazoline-2,4(1H,3H)-dione] | 0.04 | 0.26 | 1.5
